Experimental data: PubChem BioAssay (NCI)
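Step 1: Grow cells in 96-well plates. Step 2: Expose to compound for 48 hours at 5 concentrations. Step 3: Interpolate endpoints linearly; if unreached, use highest concentration. GI50 = concentration required for 50% inhibition of growth. TGI: concentration producing complete growth inhibition.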

What was measured:
Assay in all cases: inhibition of tumour cell growth, NCI panel, 48 h; in the data active = GI50 below about 0.43 µM; inactive = the rest
SW-620 colon = system: SW-620 colon
K-562 leukemia = system: K-562 leukemia
NCI-H460 lung = system: NCI-H460 lung
MOLT-4 leukemia = system: MOLT-4 leukemia
U251 CNS = system: U251 CNS
IGROV1 ovarian = system: IGROV1 ovarian
HS 578T breast = system: HS 578T breast
OVCAR-4 ovarian = system: OVCAR-4 ovarian
SK-OV-3 ovarian = system: SK-OV-3 ovarian
SF-268 CNS = system: SF-268 CNS
HCT-116 colon = system: HCT-116 colon
EKVX NSCLC = system: EKVX NSCLC
786-0 renal = system: 786-0 renal
MCF7 breast = system: MCF7 breast
COLO 205 colon = system: COLO 205 colon
SN12C renal = system: SN12C renal
UO-31 renal = system: UO-31 renal
DU-145 prostate = system: DU-145 prostate
OVCAR-5 ovarian = system: OVCAR-5 ovarian
SK-MEL-28 melanoma = system: SK-MEL-28 melanoma
CAKI-1 renal = system: CAKI-1 renal
T-47D breast = system: T-47D breast
SNB-19 CNS = system: SNB-19 CNS
SF-539 CNS = system: SF-539 CNS
SK-MEL-5 melanoma = system: SK-MEL-5 melanoma
UACC-62 melanoma = system: UACC-62 melanoma
MDA-MB-231 breast = system: MDA-MB-231 breast
NCI-H226 lung = system: NCI-H226 lung
HOP-62 NSCLC = system: HOP-62 NSCLC
A498 renal = system: A498 renal
OVCAR-3 ovarian = system: OVCAR-3 ovarian
SF-295 CNS = system: SF-295 CNS
M14 melanoma = system: M14 melanoma
RPMI-8226 leukemia = system: RPMI-8226 leukemia
HCT-15 colon = system: HCT-15 colon
A549 NSCLC = system: A549 NSCLC
KM12 colon = system: KM12 colon
MALME-3M melanoma = system: MALME-3M melanoma
NCI-H522 lung = system: NCI-H522 lung
SK-MEL-2 melanoma = system: SK-MEL-2 melanoma
MDA-MB-435 = system: MDA-MB-435
HL-60(TB) leukemia = system: HL-60(TB) leukemia
UACC-257 melanoma = system: UACC-257 melanoma
NCI/ADR-RES ovarian = system: NCI/ADR-RES ovarian
PC-3 prostate = system: PC-3 prostate
HT29 colon = system: HT29 colon
RXF 393 renal = system: RXF 393 renal
ACHN renal = system: ACHN renal
SR leukemia = system: SR leukemia
BT-549 breast = system: BT-549 breast
LOX IMVI melanoma = system: LOX IMVI melanoma
CCRF-CEM leukemia = system: CCRF-CEM leukemia
HCC-2998 colon = system: HCC-2998 colon
TK-10 renal = system: TK-10 renal
OVCAR-8 ovarian = system: OVCAR-8 ovarian
SNB-75 CNS = system: SNB-75 CNS
HOP-92 NSCLC = system: HOP-92 NSCLC
NCI-H23 lung = system: NCI-H23 lung

CN(C)c1ccc(/C=C\c2ccnc3ccccc23)cc1
> 100 µM: TGI (K-562 leukemia) | TGI (MOLT-4 leukemia) | TGI (U251 CNS) | TGI (IGROV1 ovarian) | TGI (OVCAR-4 ovarian) | TGI (SK-OV-3 ovarian) | TGI (SF-268 CNS) | TGI (OVCAR-5 ovarian) | TGI (CAKI-1 renal) | TGI (T-47D breast) | TGI (SNB-19 CNS) | TGI (UACC-62 melanoma) | TGI (HCT-15 colon) | TGI (A549 NSCLC) | TGI (NCI-H522 lung) | TGI (SK-MEL-2 melanoma) | TGI (PC-3 prostate) | TGI (ACHN renal) | TGI (SR leukemia) | TGI (LOX IMVI melanoma) | TGI (CCRF-CEM leukemia) | TGI (HCC-2998 colon) | TGI (TK-10 renal) | TGI (OVCAR-8 ovarian)
49.9 µM: TGI (BT-549 breast)
> 44.7 µM: TGI (SF-295 CNS)
> 67.9 µM: TGI (HOP-62 NSCLC)
> 30.5 µM: TGI (MDA-MB-435)
inactive: GI50 (SW-620 colon) 5.78 µM | GI50 (K-562 leukemia) > 21.1 µM | GI50 (NCI-H460 lung) 5.2 µM | GI50 (MOLT-4 leukemia) 14.5 µM | GI50 (U251 CNS) 9.43 µM | GI50 (IGROV1 ovarian) 8.85 µM | GI50 (HS 578T breast) 13 µM | GI50 (OVCAR-4 ovarian) 9.77 µM | GI50 (SK-OV-3 ovarian) 5.25 µM | GI50 (SF-268 CNS) 21.8 µM | GI50 (HCT-116 colon) 5.34 µM | GI50 (EKVX NSCLC) 2.63 µM | GI50 (786-0 renal) 6.03 µM | GI50 (COLO 205 colon) 4.75 µM | GI50 (SN12C renal) 8.81 µM | GI50 (UO-31 renal) 4.4 µM | GI50 (DU-145 prostate) 12.1 µM | GI50 (OVCAR-5 ovarian) 12.7 µM | GI50 (SK-MEL-28 melanoma) 21.7 µM | GI50 (CAKI-1 renal) 10.2 µM | GI50 (T-47D breast) 2.48 µM | GI50 (SNB-19 CNS) 10.6 µM | GI50 (SF-539 CNS) 5.17 µM | GI50 (SK-MEL-5 melanoma) 2.96 µM | GI50 (UACC-62 melanoma) 6.18 µM | GI50 (MDA-MB-231 breast) 11.3 µM | GI50 (NCI-H226 lung) 2.86 µM | GI50 (HOP-62 NSCLC) 7.5 µM | GI50 (A498 renal) 7.57 µM | GI50 (OVCAR-3 ovarian) 7.88 µM | GI50 (SF-295 CNS) 3.56 µM | GI50 (M14 melanoma) 4.42 µM | GI50 (RPMI-8226 leukemia) 4.02 µM | GI50 (HCT-15 colon) 4.42 µM | GI50 (A549 NSCLC) 5.83 µM | GI50 (KM12 colon) 3.66 µM | GI50 (MALME-3M melanoma) 17.7 µM | GI50 (NCI-H522 lung) 6.4 µM | GI50 (SK-MEL-2 melanoma) 21.2 µM | GI50 (MDA-MB-435) 1.47 µM | GI50 (HL-60(TB) leukemia) > 20.2 µM | GI50 (UACC-257 melanoma) 8.39 µM | GI50 (NCI/ADR-RES ovarian) 2.93 µM | GI50 (PC-3 prostate) 17.9 µM | GI50 (HT29 colon) 2.49 µM | GI50 (RXF 393 renal) 3.2 µM | GI50 (ACHN renal) 20.7 µM | GI50 (BT-549 breast) 5.09 µM | GI50 (LOX IMVI melanoma) 9.82 µM | GI50 (CCRF-CEM leukemia) 5.13 µM | GI50 (HCC-2998 colon) 6.04 µM | GI50 (TK-10 renal) 14.7 µM | GI50 (OVCAR-8 ovarian) 5.26 µM | GI50 (SNB-75 CNS) 1.44 µM | GI50 (HOP-92 NSCLC) 6.23 µM | GI50 (NCI-H23 lung) 3.63 µM
60.4 µM: TGI (HOP-92 NSCLC)
> 52.6 µM: TGI (HCT-116 colon)
> 26.7 µM: TGI (A498 renal)
> 89.2 µM: TGI (MALME-3M melanoma)
9.69 µM: TGI (SK-MEL-5 melanoma)
> 91.8 µM: TGI (NCI-H460 lung)
> 96 µM: TGI (SW-620 colon)
25.8 µM: TGI (SF-539 CNS)
> 80.5 µM: TGI (SK-MEL-28 melanoma)
41.5 µM: TGI (COLO 205 colon)
> 73.9 µM: TGI (MDA-MB-231 breast)
48.2 µM: TGI (NCI-H226 lung)
12.4 µM: TGI (HT29 colon)
> 79.6 µM: TGI (RXF 393 renal)
63.4 µM: TGI (NCI-H23 lung)
> 86.8 µM: TGI (HL-60(TB) leukemia)
51 µM: TGI (KM12 colon)
> 88.5 µM: TGI (DU-145 prostate)
> 39.2 µM: TGI (786-0 renal)
79.4 µM: TGI (UACC-257 melanoma)
> 74.1 µM: TGI (SN12C renal)
active: GI50 (MCF7 breast) 0.328 µM
8.97 µM: TGI (SNB-75 CNS)
> 60 µM: TGI (OVCAR-3 ovarian)
> 37.9 µM: TGI (EKVX NSCLC)
10.9 µM: TGI (MCF7 breast)
68.7 µM: TGI (UO-31 renal)
> 66 µM: TGI (M14 melanoma)
> 58.5 µM: TGI (NCI/ADR-RES ovarian)
> 47.9 µM: TGI (HS 578T breast)
> 85 µM: TGI (RPMI-8226 leukemia)
